This passage reports IC50 results from BindingDB's records for doi:10.1016/j.bioorg.2014.11.006 (Comsats Institute of Information Technology, 2015).

Sequence of Alpha-glucosidase MAL12 (P53341 whole entry): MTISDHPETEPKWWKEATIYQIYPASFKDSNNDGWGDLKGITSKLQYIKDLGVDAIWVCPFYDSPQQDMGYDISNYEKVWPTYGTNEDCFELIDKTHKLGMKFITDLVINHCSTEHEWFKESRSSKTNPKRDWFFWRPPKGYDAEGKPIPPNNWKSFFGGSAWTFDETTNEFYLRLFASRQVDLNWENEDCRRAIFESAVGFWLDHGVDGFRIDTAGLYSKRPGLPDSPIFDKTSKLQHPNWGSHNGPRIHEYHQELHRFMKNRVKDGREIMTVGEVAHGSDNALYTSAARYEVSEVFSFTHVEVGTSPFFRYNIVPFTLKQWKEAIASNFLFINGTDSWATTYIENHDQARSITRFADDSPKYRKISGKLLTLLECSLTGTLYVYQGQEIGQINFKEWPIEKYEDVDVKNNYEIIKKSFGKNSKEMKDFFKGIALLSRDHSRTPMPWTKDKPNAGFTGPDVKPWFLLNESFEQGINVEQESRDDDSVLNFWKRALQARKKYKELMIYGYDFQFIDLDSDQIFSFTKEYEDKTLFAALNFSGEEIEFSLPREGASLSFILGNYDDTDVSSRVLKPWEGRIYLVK

The assay addresses Alpha-glucosidase MAL12 (Saccharomyces cerevisiae (strain ATCC 204508 / S288c), UniProt P53341). The assay is described as follows: Alpha-glucosidase Inhibition Assay. Conditions: 37 °C. How it is done: A 100 µL assay mixture containing 70 µL phosphate buffer saline (50 mM at pH 6.8), 10 µL corresponding test compounds dissolved in methanol/DMSO (0.5 mM) and 10 µL (0.057 units) α-glucosidase enzyme were mixed, pre-incubated for 10 min at 37C and the abosrbance was recorded at 400 nm. The reaction was initiated by the addition of 10 µL p-nitrophenyl-α-D-glucopyranoside (substrate, 0.5 mM/well).
For the compound `COc1cccc(-c2nc(-c3ccccc3)c(-c3ccccc3)[nH]2)c1O` [2-(4,5-Diphenyl-1H-imidazol-2-yl)-6-methoxyphenol (3g)], half-maximal inhibition (IC50) was put at 107 µM.

`Clc1ccc(-c2nc(-c3ccccc3)c(-c3ccccc3)[nH]2)cc1`: the midpoint of inhibition, the IC50, lay at 458 µM.

With `Oc1ccccc1-c1nc(-c2ccccc2)c(-c2ccccc2)[nH]1`, the IC50 (commonly the concentration that gives 50% inhibition) amounted to 74.3 µM.

The compound `COc1cccc(-c2nc(-c3ccccc3)c(-c3ccccc3)[nH]2)c1` showed an IC50 of 359 µM.

For the compound `Oc1ccc(-c2nc(-c3ccccc3)c(-c3ccccc3)[nH]2)cc1` [SR-01000511510-2], the IC50 was found to be 97.1 µM.
